These results are taken from ChEMBL document CHEMBL5725801, “Fused heterocyclic compounds as CaM kinase inhibitors” (2018).

A short description of the experiment: CaMKII Cell-Based Activity: CaMKII activity in neonatal rat ventricular myocytes (NRVM) was measured by monitoring the phosphorylation level of phospholamban using high-content imaging. NRVMs were plated in a clear bottom 384-well plate in medium supplemented with 10% fetal bovine serum (FBS) and incubated at 37° C., 5% CO2 overnight. The medium was changed to a serum-free medium and compounds were dosed to the cells. The cells were incubated at 37° C., 5% CO2 for 4 hours and were then treated with 100 nM ATX-II (Alomone Labs) to activate CaMKII. 10 minutes after the addition of ATX-II, the cells were fixed with 4% formaldehyde followed by permeabilization with 0.1% triton X100. The fixed cells were stained with an anti-phospho-phospholamban primary antibody (Santa Cruz Biotechnology) and an Alexa488-labeled anti-rabbit IgG secondary antibody (Life Technologies Corporation) as well as Hoechst 33342 (Life Technologies Corporation). The cells were imaged using an ArrayScan VTI (Cellomics) and analyzed for cells containing a positive fluorescent signal at 485 nm, reported as % responder. The % responders were plotted against the compound concentration to determine the compounds EC50.
In general, EC50 refers to the concentration giving half of the maximal effect. Low readings indicate an effect from little substance, high ones a need for much substance. On to `CCN(CC)[C@@H](C)CNC(=O)c1cc(-c2cnn3ccc(-c4cccs4)nc23)nc(N2CC(C)(OC)C2)c1`, for which the midpoint of the response, the EC50, lay at 0.00828 µM.

On to `CCN(CC)[C@@H](C)CNC(=O)c1cc(-c2cnn3ccc(-c4cccs4)nc23)nc(N2CC[C@H]2C(=O)N2CC(C)(C)C2)c1`, for which the EC50 worked out at 0.079 µM.

Molecule `CCN(CC)c1cc(C(=O)NC[C@H](C)N(CC)CC)cc(-c2cnn3ccc(-c4cccs4)nc23)n1` gave an EC50 of 0.0404 µM.

In the case of `CCN(CC)[C@@H](C)CNC(=O)c1cc(-c2cnn3ccc(-c4cccs4)nc23)nc(N2CC[C@H]2C(=O)N(C)OC)c1`, the EC50 worked out at 0.0286 µM.

Regarding `CCN(CC)[C@@H](C)CNC(=O)c1cc(-c2cnn3ccc(-c4cccs4)nc23)nc(N2CCC[C@@H]2C(N)=O)c1`, the midpoint of the response, the EC50, lay at 0.166 µM.

As for `CCN(CC)[C@@H](C)CNC(=O)c1cc(NC2CCOCC2)nc(-c2cnn3ccc(-c4cccs4)nc23)c1`, the EC50 is 0.0242 µM.

With `CCN(CC)[C@@H](C)CNC(=O)c1cc(-c2cnn3ccc(-c4ccncc4)nc23)nc(N2CC(OC)C2)c1`, the midpoint of the response, the EC50, lay at 0.607 µM.

Turning to `CCN(CC)[C@@H](C)CNC(=O)c1cc(-c2cnn3ccc(-c4cccs4)nc23)nc(N2CC[C@H]2C(=O)N2CC3CC3C2)c1` (stereo partly specified), a half-maximal effect (EC50) was put at 0.0339 µM.

For the molecule `CCN(CC)[C@@H](C)CNC(=O)c1cc(-c2cnn3ccc(-c4cccs4)nc23)nc(N2CCC[C@@H]2COC)c1`, a half-maximal response (EC50) required 0.26 µM.

Molecule `CCN(CC)[C@@H](C)CNC(=O)c1cc(-c2cnn3ccc(-c4cccs4)nc23)nc(N2CC[C@H]2C(=O)NCC2CC2)c1` gave an EC50 of 0.0334 µM.

On to `CCN(CC)[C@@H](C)CNC(=O)c1cc(-c2cnn3ccc(-c4cccs4)nc23)nc(N2CCC[C@@H]2CO)c1`, for which the EC50 worked out at 0.0459 µM.

`CCN(CC)[C@@H](C)CNC(=O)c1cc(-c2cnn3ccc(-c4cccs4)nc23)nc(N2CCC3(COC3)C2)c1` had an EC50 of 0.0182 µM.

For `CCN(CC)[C@@H](C)CNC(=O)c1cc(-c2cnn3ccc(-c4cccs4)nc23)nc(N2CC(F)(F)C(F)(F)C2)c1`, the EC50 was found to be 0.0615 µM.

Consider `CCN(CC)[C@@H](C)CNC(=O)c1cc(-c2cnn3ccc(-c4cccs4)nc23)nc(N2CC[C@H]2C(=O)NCC(F)F)c1`, for which the midpoint of the response, the EC50, lay at 0.0275 µM.

Molecule `CCN(CC)[C@@H](C)CNC(=O)c1cc(NCC(=O)NC)nc(-c2cnn3ccc(-c4cccs4)nc23)c1` displayed a 50% effective concentration (EC50) of 0.108 µM.

In turn, `CCN(CC)[C@@H](C)CNC(=O)c1cc(-c2cnn3ccc(-c4cccs4)nc23)nc(N2C[C@H](O)[C@@H](O)C2)c1` returned an EC50 of 0.25 µM.

`CCN(CC)[C@@H](C)CNC(=O)c1cc(N[C@H](C)C(=O)NC)nc(-c2cnn3ccc(-c4cccs4)nc23)c1` yielded an EC50 of 0.147 µM.

The molecule `CCN(CC)[C@@H](C)CNC(=O)c1cc(-c2cnn3ccc(-c4cccs4)nc23)nc(N2CC[C@H]2C(=O)N(C)C)c1` returned an EC50 of 0.0107 µM.

Molecule `CCN1CCC[C@H]1CNC(=O)c1cc(-c2cnn3ccc(-c4cccs4)nc23)nc(N2CC(OC)C2)c1` returned an EC50 of 0.181 µM.

`CCN(CC)[C@@H](C)CNC(=O)c1cc(Nc2ncc[nH]2)nc(-c2cnn3ccc(-c4cccs4)nc23)c1` registered an EC50 of 0.247 µM.

As to `CCN(CC)CCNC(=O)c1cc(-c2cnn3ccc(-c4cccs4)nc23)nc(N2CC(C)(O)C2)c1`, the EC50 was 0.0537 µM.

On to `CCN(CC)[C@@H](C)CNC(=O)c1cc(-c2cnn3ccc(-c4cccs4)nc23)nc(N2CC[C@H]2C(=O)N2CCOCC2)c1`, for which the EC50 turned out to be 0.0213 µM.

Consider `COC1CN(c2cc(C(=O)NC[C@@H]3CCCN3C)cc(-c3cnn4ccc(-c5cccs5)nc34)n2)C1`, for which the EC50 was determined as 0.326 µM.

As for `CCN(CC)[C@@H](C)CNC(=O)c1cc(-c2cnn3ccc(-c4cccs4)nc23)nc(N2CCC23COC3)c1`, the EC50 came to 0.0545 µM.

`CCN(CC)CCNC(=O)c1cc(NCCO)nc(-c2cnn3ccc(-c4cccs4)nc23)c1` showed an EC50 of 0.136 µM.

In turn, `CCN(CC)[C@@H](C)CNC(=O)c1cc(-c2cnn3ccc(-c4cccs4)nc23)nc(N2CCC(F)(F)C2)c1` returned an EC50 of 0.0281 µM.

With `CCN(CC)[C@@H](C)CNC(=O)c1cc(-c2cnn3ccc(-c4cccs4)nc23)nc(N2CCC[C@H]2CO)c1`, the EC50 worked out at 0.112 µM.

In turn, `CCN(CC)[C@@H](C)CNC(=O)c1cc(NCCN2CC(F)(F)C2)nc(-c2cnn3ccc(-c4cccs4)nc23)c1` gave an EC50 of 0.0456 µM.

Molecule `CCN(CC)[C@@H](C)CNC(=O)c1cc(-c2cnn3ccc(-c4cccs4)nc23)nc(N2CCO[C@H](CO)C2)c1` displayed an EC50 of 0.0435 µM.

Molecule `CCN(CC)[C@@H](C)CNC(=O)c1cc(-c2cnn3ccc(-c4cccs4)nc23)nc(N2CC[C@H]2C(=O)Nc2nccs2)c1` displayed an EC50 of 0.127 µM.

`CCN(CC)[C@@H](C)CNC(=O)c1cc(NCCCO)nc(-c2cnn3ccc(-c4cccs4)nc23)c1` displayed an EC50 of 0.0494 µM.

`CCN(CC)[C@@H](C)CNC(=O)c1cc(-c2cnn3ccc(-c4cccs4)nc23)nc(N2CC[C@H]2C(=O)N2CC(OC)C2)c1` displayed an EC50 of 0.0325 µM.

With `CCN(CC)[C@@H](C)CNC(=O)c1cc(-c2cnn3ccc(-c4cccs4)nc23)nc(N2CC[C@H]2C(=O)N2CCCC2)c1`, a half-maximal effect (EC50) was put at 0.0223 µM.

Regarding `COC1CN(c2cc(C(=O)NC[C@@H]3CCCN3)cc(-c3cnn4ccc(-c5cccs5)nc34)n2)C1`, it took 0.261 µM to reach a half-maximal effect (EC50).

In turn, `CCN(CC)[C@@H](C)CNC(=O)c1cc(-c2cnn3ccc(-c4cccs4)nc23)nc(N2CCC(C(N)=O)CC2)c1` gave an EC50 of 0.115 µM.

In turn, `CCN(CC)[C@@H](C)CNC(=O)c1cc(NCCN2CCOCC2)nc(-c2cnn3ccc(-c4cccs4)nc23)c1` had an EC50 of 0.0275 µM.

The molecule `CCN(CC)[C@@H](C)CNC(=O)c1cc(NCc2ncc[nH]2)nc(-c2cnn3ccc(-c4cccs4)nc23)c1` returned an EC50 of 0.148 µM.

The molecule `CCN(CC)[C@@H](C)CNC(=O)c1cc(-c2cnn3ccc(-c4cccs4)nc23)nc(N2CCC(OC)CC2)c1` came in with an EC50 of 0.11 µM.

`CCN(CC)[C@@H](C)CNC(=O)c1cc(NCC(N)=O)nc(-c2cnn3ccc(-c4cccs4)nc23)c1` displayed an EC50 of 0.306 µM.

`CCN[C@@H](C)CNC(=O)c1cc(-c2cnn3ccc(-c4cccs4)nc23)nc(N2CC(C)(O)C2)c1` registered an EC50 of 0.368 µM.

`CCN(CC)[C@@H](C)CNC(=O)c1cc(-c2cnn3ccc(-c4cccs4)nc23)nc(N2CC(CO)(CO)C2)c1`: the response was half-maximal at 0.107 µM (EC50).

As for `CCN(CC)[C@@H](C)CNC(=O)c1cc(-c2cnn3ccc(-c4cccs4)nc23)nc(N2CCC[C@H]2C(N)=O)c1`, the EC50 came out at 0.259 µM.

Turning to `CCN(CC)[C@@H](C)CNC(=O)c1cc(-c2cnn3ccc(-c4cccs4)nc23)nc(N2CC[C@H]2C(=O)N2CC(F)C2)c1`, the response was half-maximal at 0.0162 µM (EC50).

In turn, `CCN(CC)[C@@H](C)CNC(=O)c1cc(NCCC(C)(C)O)nc(-c2cnn3ccc(-c4cccs4)nc23)c1` displayed an EC50 of 0.0223 µM.

In turn, `CCN(CC)[C@@H](C)CNC(=O)c1cc(NCCS(N)(=O)=O)nc(-c2cnn3ccc(-c4cccs4)nc23)c1` registered an EC50 of 0.232 µM.

Turning to `CCN(CC)C(=O)[C@@H]1CCN1c1cc(C(=O)NC[C@H](C)N(CC)CC)cc(-c2cnn3ccc(-c4cccs4)nc23)n1`, the midpoint of the response, the EC50, lay at 0.0252 µM.

In turn, `CCN(CC)[C@@H](C)CNC(=O)c1cc(-c2cnn3ccc(-c4cccs4)nc23)nc(N2CC[C@H]2COC)c1` registered an EC50 of 0.0784 µM.

Molecule `CCN(CC)[C@@H](C)CNC(=O)c1cc(-c2cnn3ccc(-c4cccs4)nc23)nc(N2C[C@@H]3C[C@H]2CO3)c1` registered an EC50 of 0.514 µM.

Molecule `CCN(CC)[C@@H](C)CNC(=O)c1cc(-c2cnn3ccc(-c4cccs4)nc23)nc(N2CC[C@H]2C(=O)NCC(F)(F)F)c1` came in with an EC50 of 0.0416 µM.

On to `CCN(CC)CCNC(=O)c1cc(-c2cnn3ccc(-c4cccs4)nc23)nc(N2CC(OC)C2)c1`, for which the EC50 came out at 0.0909 µM.

Molecule `CCN(CC)[C@@H](C)CNC(=O)c1cc(N[C@H](C)C(N)=O)nc(-c2cnn3ccc(-c4cccs4)nc23)c1` displayed an EC50 of 0.355 µM.

Regarding `CCN(CC)[C@@H](C)CNC(=O)c1cc(-c2cnn3ccc(-c4cccs4)nc23)nc(N2CC[C@H]2C(=O)N2CC(NS(C)(=O)=O)C2)c1`, the EC50 is 0.147 µM.

Molecule `CCN(CC)[C@@H](C)CNC(=O)c1cc(-c2cnn3ccc(-c4cccs4)nc23)nc(N2CC(O)(C3CC3)C2)c1` displayed an EC50 of 0.0567 µM.

In turn, `CCN(CC)[C@@H](C)CNC(=O)c1cc(NCCCOC)nc(-c2cnn3ccc(-c4cccs4)nc23)c1` gave an EC50 of 0.0319 µM.

`CCN(CC)[C@@H](C)CNC(=O)c1cc(Nc2cn[nH]c2)nc(-c2cnn3ccc(-c4cccs4)nc23)c1` showed a half-maximal effective concentration (EC50) of 0.00987 µM.

In turn, `CCN(CC)[C@@H](C)CNC(=O)c1cc(-c2cnn3ccc(-c4cccs4)nc23)nc(N2CC(O)(C(F)(F)F)C2)c1` yielded an EC50 of 0.0265 µM.

`CCNC(=O)[C@@H]1CCN1c1cc(C(=O)NC[C@H](C)N(CC)CC)cc(-c2cnn3ccc(-c4cccs4)nc23)n1` yielded an EC50 of 0.0285 µM.

Take `CCN(CC)[C@@H](C)CNC(=O)c1cc(-c2cnn3ccc(-c4cccs4)nc23)nc(N2CC(C)(O)C2)c1`: the EC50 was 0.0214 µM.

The molecule `CCNc1cc(C(=O)NC[C@H](C)N(CC)CC)cc(-c2cnn3ccc(-c4cccs4)nc23)n1` returned an EC50 of 0.0978 µM.

`CCN(CC)[C@@H](C)CNC(=O)c1cc(-c2cnn3ccc(-c4cccs4)nc23)nc(N2CC[C@H]2C(=O)NC2CC2)c1` displayed an EC50 of 0.028 µM.

The molecule `CCN(CC)[C@@H](C)CNC(=O)c1cc(N[C@@H](C)C(N)=O)nc(-c2cnn3ccc(-c4cccs4)nc23)c1` yielded an EC50 of 0.148 µM.

In the case of `CCN(CC)[C@@H](C)CNC(=O)c1cc(-c2cnn3ccc(-c4cccs4)nc23)nc(N2CC[C@@H]2COC)c1`, the EC50 was found to be 0.0801 µM.

For `CCN(CC)[C@@H](C)CNC(=O)c1cc(-c2cnn3ccc(-c4cccs4)nc23)nc(N2CC[C@H]2C(=O)NCCF)c1`, the response was half-maximal at 0.053 µM (EC50).

With `CCN(CC)[C@@H](C)CNC(=O)c1cc(-c2cnn3ccc(-c4cccs4)nc23)nc(N2CC[C@H]2C(=O)NOC)c1`, the EC50 is 0.0842 µM.

Turning to `CCN(CC)[C@@H](C)CNC(=O)c1cc(-c2cnn3ccc(-c4cccs4)nc23)nc(N2CC[C@H]2C(=O)N2CC(F)(F)C2)c1`, a half-maximal response (EC50) required 0.0294 µM.

Regarding `CCN(CC)[C@@H](C)CNC(=O)c1cc(N[C@@H](C)C(=O)NC)nc(-c2cnn3ccc(-c4cccs4)nc23)c1`, the EC50 came to 0.129 µM.
